Series [1] can be described thus: Cycloaddition with benzyl azide, second-order rate constant by 1H NMR. The series is classed as physicochemical. The following applies: for second-order rate constant: NMR. The protocol: However, upon exposure to azides a fast reaction took place and gave the corresponding triazoles in high yield. For example, triazoles 10-13 were obtained in quantitative yields as mixtures of regioisomers by reaction of the corresponding azido-containing sugar and amino acid derivatives with 3 in methanol for 30 minutes (Scheme 2; FIG. 3 and FIG. 4). The progress of the reaction of 3 with benzyl azide in methanol and in a mixture of water/acetonitrile (1:4 v/v) was monitored by NMR spectroscopy by integration of the benzylic proton signals, and second-order rate constants of 0.17 and 2.3 m^−1s^−1, respectively, were determined.
A number of analogs (63-68) of 4-dibenzocyclooctynol (61) were prepared and the influence of these modifications on the reaction rate of the cycloaddition with benzyl azide was determined by integration of the benzylic proton signals in ^1H NMR spectrum.
General Method for Calculating Second Order Rate Constants by NMR.
Substrates were dissolved separately in the appropriate solvent and mixed 1:1 at 6 mM concentrations. Percent conversion was monitored both by disappearance of starting material and appearance of the two regioisomeric products as determined by integration at multiple chemical shifts. Second order rate constants for the reaction were determined by plotting the 1/[substrates] versus time and analysis by linear regression. Second order rate constants correspond to one half of the determined slope.

Series [2] is described as follows: Shelf life and reactivity towards nucleophiles. The series is classed as physicochemical.
Series [3] relates to Jurkat cells.
Series [4] deals with Jurkat cells bearing azides (Ac4ManNAz-treated). Briefly: Cell surface azide labeling and detection by fluorescence intensity (avidin-FITC). The series is classed as cell-based, Human. The method, then: FIG. 6 illustrates embodiments of cell-surface labeling with compounds 2 and 9. Jurkat cells grown for three days in the absence or presence of Ac4ManNAz (25 micromolar) were incubated a) with compounds 2 and 9 (30 micromolar) for 0-180 minutes or b) with compounds 2 and 9 (0-100 micromolar) for 1 hour at room temperature. Next, the cells were incubated with avidin-FITC for 15 minutes at 4° C., after which cell lysates were assessed for fluorescence intensity. Samples are indicated as follows: blank cells incubated with 2 (∘) or 9 (□), and Ac,ManNAz cells incubated with 2 (●) or 9 (▪).
Next, Jurkat cells were cultured in the presence of 25 micromolar N-azidoacetylmannosamine (Ac4ManNAz) for three days to metabolically introduce N-azidoacetylsialic acid (SiaNAz) moieties into glycoproteins (Luchansky and Bertozzi, Chem-BioChem 2004, 5:1706-1709). As a negative control, Jurkat cells were employed that were grown in the absence of Ac4ManNAz. The cells were exposed to a 30 micromolar solution of compound 9 for various time periods, and after washing, the cells were stained with avidin-fluorescein isothiocyanate (FITC) for 15 minutes at 4° C. The efficiency of the two-step cell-surface labeling was determined by measuring the fluorescence intensity of the cell lysates. […]

Series [5] is described as follows: Solubility seen in the labeling experiment. Type of series: physicochemical. To be noted: no increase in labeling above 100 micromolar. The protocol: The concentration dependence of the cell-surface labeling was studied by incubation of cells with various concentrations of 2 and 9 followed by staining with avidin-FTIC (FIG. 6b).
Series [6] concerns CHO cells bearing azides (Ac4ManNAz-treated). Description: Cell labeling and detection by fluorescence (confocal) microscopy. Type of series: cell-based, Chinese hamster. The method, then: FIG. 8 illustrates fluorescence images for embodiments of cells labeled with compound 9 and avidin-Alexa Fluor 488. CHO cells grown for 3 days in the absence (d-f) or presence (a-c) of Ac4ManNAz (100 micromolar) were incubated with compound 9 (30 micromolar) for 1 hour at 4° C. (a, d) or room temperature (b, c, e, f). Next, cells were incubated with avidin-Alexa Fluor 488 for 15 minutes at 4° C. and, after washing, fixing, and staining for the nucleus with far-red-fluorescent dye TO-PRO, imaged (a, b, d, e) or after washing incubated for 1 hour at 37° C. before fixing, nucleus staining, and imaging (c, f).
Next, attention was focused on visualizing azido-containing glycoconjugates of living cells by confocal microscopy. Thus, adherent Chinese hamster ovary (CHO) cells were cultured in the presence of Ac4ManNAz (100 micromolar) for three days. The resulting cell-surface azido moieties were treated with 9 (30 micromolar) for 1 hour and then with avidin-AlexaFluor488 for 15 minutes at 4° C.
Cell-surface glycoconjugates are constantly recycled by endocytosis, and to monitor this process, metabolically labeled cells were reacted with 9 and avidin-AlexaFluor488 according to the standard protocol and incubated at 37° C. for 1 hour before examination by confocal microscopy.
Chinese hamster ovary (CHO) cells (Clone K1; ATCC) were cultured in Kaighn's modification of Ham's F-12 medium (F-12K) with L-glutamine (2 mM), adjusted to contain sodium bicarbonate (1.5 g L^−1) and supplemented with penicillin (100 u mL^−1)/streptomycin (100 micrograms mL^−1 and FBS (10%). Cells were maintained in a humid 5% CO2 atmosphere at 37° C. CHO cells were grown in the presence of Ac4ManNaz (100 micromolar final concentration) for 3 days to metabolically incorporate SiaNAz into their cell surface glycoproteins. CHO cells bearing azides and untreated control cells were then transferred to a glass coverslip and cultured for 36 hours in their original medium. […] The step size, based on the calculated optimum for each objective, was between 0.25 and 0.5 micrometers. […]

Where [7] appears, read: cycloaddition with benzyl azide.

SMILES strings stand for the structures.

Results on 5 compounds are retold here after patent publication US9932297B2, “Alkynes and methods of reacting alkynes with 1,3-dipole-functional compounds” (UNIVERSITY OF GEORGIA RESEARCH FOUNDATION, INC., priority 2007, dated 2018).

Consider `OC1Cc2ccccc2C#Cc2ccccc21` (stereo not drawn) [Compound 3, 3-Hydroxy-7,8-didehydro-1,2:5,6-dibenzocyclooctene], for which the “rate constant compared with cyclooctyne 1” value in series [1] (acetonitrile/water) is “three orders of magnitude greater”. In addition, the second-order rate constant was determined as 0.17 m^−1s^−1 in series [1] (reaction with benzyl azide in methanol) and 2.3 m^−1s^−1 in series [1] (reaction with benzyl azide in water/acetonitrile (1:4 v/v)). Besides, the shelf life result in series [2] was “excellent, long shelf life”. Also, the reactivity with nucleophiles result in series [2] (thiols and amines) was “did not react with nucleophiles such as thiols and amines”.

Turning to `O=C(CCCCC1SCC2NC(=O)NC21)NCCOCCOCCNC(=O)OC1Cc2ccccc2C#Cc2ccccc21` (stereo not drawn) [Compound 9, Carbonic acid 7,8-didehydro-1,2:5,6-dibenzocyclooctene-3-yl ester, 8′-biotinylamine-3′,6′-dioxaoctane 1′-amide], the “effect on cell viability” value in series [3] (two-step labeling, morphology and exclusion of trypan blue) is recorded as “no effect on cell viability”. The “incubation time after which labeling was almost complete” value in series [4] (30 micromolar, room temperature, then avidin-FITC) stood at 60 min. The “concentration at which reliable fluorescent labeling was achieved” value in series [4] (1 hour at room temperature) amounted to 3 µM. For the same compound, the solubility result in series [5] was “limited solubility”. Besides, the “labeling efficiency at ambient temperature versus 4° C.” value in series [6] (30 micromolar, 1 hour) was “equally efficient when performed at either ambient temperature or 4 °C”. In addition, in series [6] (30 micromolar, 1 hour, then avidin-AlexaFluor488), the location of staining entry is “staining was observed only at the surface”. Also, the “internalization of labeled glycoproteins” value in series [6] (after labeling, incubated at 37° C. for 1 hour) is given as “a significant quantity of labeled glycoproteins had been internalized into vesicular compartments”.

With `C1#Cc2ccccc2CCc2ccccc21` [Compound 62, reference compound], in series [1] (setting [7]), the “times slower reaction than 4-dibenzocyclooctynol (61)” value was “approximately 70 times”.

Turning to `O=C1Cc2ccccc2C#Cc2ccccc21` [Compound 67, 6H-11,12-didehydro-dibenzo[a,e]cyclooctatrien-5-one], the “reaction rate compared with 61 (in words)” value in series [1] (setting [7]) is “slightly higher reaction rate than 1”.

For `[Cl][Cu]` [Cu^ICl, reference compound], the cell death entry in series [3] is reported as “approximately 98%”.
